Patent US12162901B2, “N-acetylated sialic acids and related sialosides” (priority 2016, dated 2024)

Assays:
BJA-B K20 cells = assay: Feeding of free sialic acids to BJA-B K20 cells, PToV probes, flow cytometry; assay type: cell-based, human; conditions: 1 mM, three days; PToV with active esterase
[1] = biological target: bovine coronavirus hemagglutinin-esterase (BCoV-Mebus-Fc, esterase inactivated) (Bovine coronavirus, UniProt P15776, S40A); assay: Sialoglycan microarray binding of BCoV-Mebus-Fc (esterase inactive); conditions: without esterase treatment (FIG. 3A)

Row | Structure (SMILES) | resistance of cell surface sialic acid to virus-hemagglutinin-esterase activity (BJA-B K20 cells) | binding of BCoV on glycan microarray [1]
1 | CC(=O)N[C@H]1[C@H]([C@H](O)[C@H](O)COC(C)=O)OC(O)(C(=O)O)C[C@@H]1O (stereo partly shown) [Neu5,9Ac2, 9-O-acetyl-N-acetylneuraminic acid] | only Neu5Ac9NAc-fed ones were resistant | 
2 | CC(=O)NC[C@@H](O)[C@@H](O)[C@@H]1O[C@@](O[C@H]2[C@@H](O)[C@@H](CO)O[C@@H](O[C@H]3[C@H](O)[C@@H](O)[C@H](OCCCN)O[C@@H]3CO)[C@@H]2O)(C(=O)O)C[C@H](O)[C@H]1NC(C)=O [Neu5Ac9NAcα3Galβ4GlcβProNH2, 3-Aminopropyl O-(5,9-Diacetamido-3,5,9-trideoxy-D-glycero-α-D-galacto-2-nonulopyranosylonic acid)-(2→3)-O-β-D-galactopyranosyl-(1→4)-β-D-glucopyranoside] |  | prefer binding
3 | CC(=O)NC[C@@H](O)[C@@H](O)[C@@H]1OC(O)(C(=O)O)C[C@H](O)[C@H]1NC(C)=O (stereo partly drawn) [Neu5Ac9NAc, 5,9-Diacetamido-3,5,9-Trideoxy-D-glycero-D-galacto-2-nonulopyranosylonic Acid] | resistant to virus-hemagglutinin-esterase activity | 
4 | CC(=O)N[C@H]1[C@H]([C@H](O)[C@H](O)COC(C)=O)O[C@@](O[C@H]2[C@@H](O)[C@@H](CO)O[C@@H](O[C@H]3[C@H](O)[C@@H](O)[C@H](OCCCN)O[C@@H]3CO)[C@@H]2O)(C(=O)O)C[C@@H]1O [Neu5,9Ac2α3Galβ4GlcβProNH2] |  | prefer binding
